This is an account of results in PubChem BioAssay AID1963844 (Molecular Pharmacology Branch, DTP, NCI, 2024).

This assay deals with 422866-222-R5-J1-PDC complex spheroid viability. Nature of the assay: Anticancer human tumor 422866-222-R5-J1-PDC patient-derived pancreatic adenocarcinoma cell line growth inhibition [POLQ]. To be noted: for viability, T/C: stronger effect = lower value. Here is the method: Multicellular complex tumor spheroid response to Polymerase (POL) inhibitors (novobiocin, ART-558, RP6685) in combination with a variety of drugs and investigational agents in selected tumor cell lines
The POL inhibitors (novobiocin, ART-558, and RP6685) were evaluated both individually and in combination with standard of care and investigational anticancer small molecules within a complex spheroid model of solid tumors. . Complex spheroids include a stromal component modeled by human endothelial cells (HUVEC) and fibroblasts modeled by human mesenchymal stem cells (MSCs). The concentration ranges selected for each drug and investigational agent were based upon clinically achievable concentrations if the clinical Cmax of the agent was known.
Compounds. The drugs and investigational agents: novobiocin (NSC847541), ART-558 (NSC835418), RP-6685 (NSC848927), peposertib (NSC802822), ceralasertib (NSC780249), elimusertib (NSC800525), camonsertib (NSC841442), AZD-1390 (NSC803789), olaparib (NSC753686), talazoparib (NSC767125), rucaparib (NSC756644), sotorasib (NSC818433), MRTX-1133 (NSC836407), SN-38 (NSC673596), topotecan (NSC609699), epotoside (NSC141540), doxorubicin (NSC123127), gemcitabine (NSC613327), 5-fluorouracil (NSC19893), paclitaxel (NSC125973), vemurafenib (NSC761431), MSA-2 (NSC828583), SN-011 (NSC837082), adavosertib (NSC754352), prexasertib (NSC758257), carboplatin (NSC241240) and oxaliplatin (NSC266046), were obtained from the National Cancer Institute (NCI) Developmental Therapeutics Program Chemical Repository (21). The FDA-approved anticancer drug set is available from the Developmental Therapeutics Program at https://dtp.cancer.gov/organization/dscb/obtaining/. […] The stock solutions were prepared in dimethyl sulfoxide (DMSO, Sigma-Aldrich, St. Louis, MO, cat. D2650), except for the platinum compounds which were prepared in saline (Quality Biological, Gaithersburg, MD, cat. 114-055-101), at 800-fold the tested concentration and stored at -70 degrees C prior to their use. All drugs and investigational agents were tested over a range starting from a high concentration at or near the clinical Cmax and decreasing in half-log increments. If the clinical Cmax for an agent had not been determined, the highest concentration tested was 10 microM, except for SN-38, which was tested at a high concentration of 1 microM.
Cell Culture. All cells were maintained in an incubator at 37 degrees C and 5% CO2 with 95% humidity. The PDC lines were cultured according to standard operating procedures established by the NCI PDMR (https://pdmr.cancer.gov). Table 3 of the manuscript, lists the cell lines along with the number of the three cell types plated to form the mct-spheroids and media for tumor cell growth. After thawing, all PDC lines, except 997537-175-T-J1-PDC and 415267-285-R-J2-PDC, were cultured in Matrigel-coated flasks prepared with a working solution of 1X Ham's F-12 nutrient mix, without supplementation (Thermo Fisher Scientific, cat. 11765054), 100 U/mL penicillin-streptomycin (Thermo Fisher Scientific, cat. 15140122), and 2.5% Matrigel (Corning Inc., Corning, NY, cat. 354248) for the first three passages. The two PDC lines 997537-175-T-J1-PDC and 415267-285-R-J2-PDC were cultured on uncoated flasks. The 857933-349-R-J2-PDC line was cultured in 6C/Colon 1B media containing advanced DMEM/F-12 (Thermo Fisher Scientific, cat. 12634028), 10 mM HEPES (Thermo Fisher Scientific, cat. 15630080), 1X GlutaMAX supplement (Thermo Fisher Scientific, cat. 35050061), 0.1 mg/mL primocin (InvivoGen, San Diego, CA, cat. ant-pm-2), 10% defined fetal bovine serum, heat inactivated (HyClone Laboratories Inc., Logan, UT, cat. SH30070.03HI), 50% L-WRN conditioned media (ATCC, cat. CRL-3276), 1.25 mM N-Acetyl-L-cysteine (Sigma-Aldrich, cat. A9165), 10 mM nicotinamide (Sigma-Aldrich, cat. N0636), 1X B-27 supplement (Thermo Fisher Scientific, cat. 17504044), 1X N-2 supplement (Thermo Fisher Scientific, cat. […]

“And” between values parts separate entries of the source, which are not always exact repeats. Equal values may be shown once.
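Further: spheroids exposed to compounds for one week before readout.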
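Wherever viability, T/C is given: percent of DMSO vehicle wells luminescence so 100% = untreated viability.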

As to `CCc1cc2c(N3CCc4c(cc(Cn5ccnc5)cc4-c4cn(C)nc4C(F)(F)F)C3=O)cc(C)nc2c(OC)n1`, the viability, T/C is 89.5% and 92.6% and 79.2% (compound 0.0316 µM); 93.5% and 80.2% and 93.8% (compound 0.1 µM); 96.5% and 104% and 95.6% (compound 0.316 µM); 120% and 102% and 96.1% (compound 1 µM); 109% and 99.8% and 115% (compound 10 µM). Where the note is “curve of compound”, the IC50 is over 10000 nM.
On to `C=CCn1c(=O)c2cnc(Nc3ccc(N4CCN(C)CC4)cc3)nc2n1-c1cccc(C(C)(C)O)n1`, for which the viability, T/C runs as follows: (compound 0.00316 µM) 86.1% and 96.9% and 101%; (compound 0.01 µM) 105% and 93% and 107%; (compound 0.0316 µM) 105% and 93.5% and 83.3%; (compound 0.1 µM) 85.7% and 91% and 78.1%; (compound 0.316 µM) 56% and 43.9% and 56.5%; (compound 1 µM) 36% and 31% and 34.6%. For the same molecule, the IC50 (curve of compound) was 434 nM and 272 nM and 446 nM.
In the case of `Nc1ccn(C2OC(CO)C(O)C2(F)F)c(=O)n1` (stereo unspecified), the viability, T/C was 62.1% and 51.8% and 64.1% (compound 0.0316 µM); 54.6% and 35.1% and 56.4% (compound 0.1 µM); 41% and 37% and 34.6% (compound 0.316 µM); 41.4% and 31.6% and 43% (compound 1 µM); 38.3% and 35.9% and 36.3% (compound 3.16 µM); 40.9% and 38.9% and 34.1% (compound 10 µM). The IC50 (curve of compound) is 120 nM and < 31.6 nM and 146 nM.
As to `Cn1ncnc1[C@H]1c2n[nH]c(=O)c3cc(F)cc(c23)N[C@@H]1c1ccc(F)cc1` + Nc1ccc(C#CCN(C(=O)Cc2ncc(C(F)(F)F)cc2C(F)(F)F)c2ccc(F)cc2)nn1, the 50% inhibitory concentration (IC50) reads like this: (curve of first compound, second compound 0.0316 µM) over 100 nM; (curve of first compound, second compound 0.1 µM) over 100 nM; (curve of first compound, second compound 0.316 µM) over 100 nM; (curve of first compound, second compound 1 µM) over 100 nM; (curve of first compound, second compound 3.16 µM) over 100 nM; (curve of first compound, second compound 10 µM) over 100 nM. Also, the viability, T/C is, setting by setting: (second compound 0.0316 µM, first compound 0.000316 µM) 91.5%; (second compound 0.0316 µM, first compound 0.001 µM) 115%; (second compound 0.0316 µM, first compound 0.00316 µM) 80.7%; (second compound 0.0316 µM, first compound 0.01 µM) 104%; (second compound 0.0316 µM, first compound 0.0316 µM) 88.3%; (second compound 0.0316 µM, first compound 0.1 µM) 75.7%. Besides, the viability, T/C runs as follows: (second compound 0.1 µM, first compound 0.000316 µM) 101%; (second compound 0.1 µM, first compound 0.001 µM) 106%; (second compound 0.1 µM, first compound 0.00316 µM) 110%; (second compound 0.1 µM, first compound 0.01 µM) 85.2%; (second compound 0.1 µM, first compound 0.0316 µM) 81.7%; (second compound 0.1 µM, first compound 0.1 µM) 74.1%. Besides, the viability, T/C worked out at 112% (second compound 0.316 µM, first compound 0.000316 µM); 108% (second compound 0.316 µM, first compound 0.001 µM); 86.1% (second compound 0.316 µM, first compound 0.00316 µM); 91.6% (second compound 0.316 µM, first compound 0.01 µM); 92.7% (second compound 0.316 µM, first compound 0.0316 µM); 75.2% (second compound 0.316 µM, first compound 0.1 µM). In addition, the viability, T/C was determined as 109% (second compound 1 µM, first compound 0.000316 µM); 93.6% (second compound 1 µM, first compound 0.001 µM); 98.8% (second compound 1 µM, first compound 0.00316 µM); 98.8% (second compound 1 µM, first compound 0.01 µM); 77% (second compound 1 µM, first compound 0.0316 µM); 87.9% (second compound 1 µM, first compound 0.1 µM). Besides, the viability, T/C by setting is: (second compound 3.16 µM, first compound 0.000316 µM) 115%; (second compound 3.16 µM, first compound 0.001 µM) 111%; (second compound 3.16 µM, first compound 0.00316 µM) 98.1%; (second compound 3.16 µM, first compound 0.01 µM) 94.9%; (second compound 3.16 µM, first compound 0.0316 µM) 89.1%; (second compound 3.16 µM, first compound 0.1 µM) 92.4%. In addition, the viability, T/C was found to be 101% (second compound 10 µM, first compound 0.000316 µM); 111% (second compound 10 µM, first compound 0.001 µM); 108% (second compound 10 µM, first compound 0.00316 µM); 95.7% (second compound 10 µM, first compound 0.01 µM); 86.1% (second compound 10 µM, first compound 0.0316 µM); 77.9% (second compound 10 µM, first compound 0.1 µM).
Regarding `CCc1c2c(nc3ccc(O)cc13)-c1cc3c(c(=O)n1C2)COC(=O)[C@]3(O)CC`, the viability, T/C (compound 0.00316 µM) was 44.8% and 37.1% and 42.1%; the viability, T/C (compound 0.01 µM) was 37.5% and 32.6% and 33.8%; the viability, T/C (compound 0.0316 µM) is 39.4% and 34.2% and 30.3%; the viability, T/C (compound 0.1 µM) was 39.1% and 34% and 31.1%; the viability, T/C (compound 0.316 µM) was 32.7% and 37.2% and 29.6%; the viability, T/C (compound 1 µM) was 24.8% and 18.2% and 24.5%. In addition, the IC50 (curve of compound) was under 3.16 nM.
`COc1cccc2c1C(=O)c1c(O)c3c(c(O)c1C2=O)CC(O)(C(=O)CO)CC3OC1CC(N)C(O)C(C)O1` (stereo unspecified): the viability, T/C runs as follows: (compound 0.0316 µM) 70.1% and 56.7% and 69%; (compound 0.316 µM) 36.8% and 26.5% and 35.3%; (compound 1 µM) 34.3% and 23.3% and 26.8%; (compound 3.16 µM) 30.2% and 28.3% and 28.6%; (compound 10 µM) 33.7% and 25.8% and 38.8%. Further, the IC50 (curve of compound) is 106 nM and 68.8 nM and 221 nM.
Consider `O=C(Nc1ccc(O)c(NS(=O)(=O)c2ccc(F)cc2)c1)c1ccc(-c2ccccc2)cc1`, for which the viability, T/C runs as follows: (compound 0.0316 µM) 110% and 86.1% and 107%; (compound 0.1 µM) 79.5% and 94.1% and 96.3%; (compound 0.316 µM) 78.5% and 81.6% and 79.1%; (compound 1 µM) 90.2% and 93.1% and 97.9%; (compound 3.16 µM) 90% and 107% and 97.1%; (compound 10 µM) 106% and 113% and 128%. Besides, the IC50 (curve of compound) was over 10000 nM.
Regarding `COc1cc(C2c3cc4c(cc3C(OC3OC5COC(C)OC5C(O)C3O)C3COC(=O)C23)OCO4)cc(OC)c1O` (stereo unspecified), the viability, T/C reads like this: (compound 0.0316 µM) 90.2% and 97.7% and 97.4%; (compound 0.1 µM) 95% and 86.7% and 97.1%; (compound 0.316 µM) 79.5% and 59.3% and 73.2%; (compound 1 µM) 54.9% and 45.2% and 52.5%; (compound 3.16 µM) 37% and 39.4% and 37.1%; (compound 10 µM) 33.3% and 33.2% and 28.4%. Besides, the IC50 (curve of compound) is 1340 nM and 667 nM and 1150 nM.
For `CC1COCCN1c1cc(C2(O)CC3CCC(C2)O3)c2cnn(-c3ccn[nH]3)c2n1` (stereo unspecified), the viability, T/C was 81.2% and 74.1% and 69.6% (compound 0.0316 µM); 53.5% and 43.4% and 42.3% (compound 0.1 µM); 50.6% and 44.2% and 35.5% (compound 0.316 µM); 84% and 70.7% and 73.2% (compound 1 µM); 80.6% and 79% and 77.3% (compound 3.16 µM); 65.8% and 78.8% and 62.6% (compound 10 µM). In addition, the half-maximal inhibitory concentration (IC50) (curve of compound) is over 10000 nM.

For orientation: viability, T/C means the ratio of treated to control. As a reminder, the IC50 is the midpoint of a concentration-inhibition curve.
